Values after ≈ are worked out from the molar mass of the structure shown. Active and inactive are the calls of the source. The rule behind the calls is not given here.
Key:
HUVEC [1] = experiment: Anti-ferroptosis activity against […]-induced ferroptosis in HUVEC cells assessed as increase in cell viability at 10 uM incubated for 24 hrs by SRB assay; assay type: functional, cell-based; details: Homo sapiens
HUVEC [2] = experiment: Anti-ferroptosis activity against […]-induced ferroptosis in HUVEC cells assessed as increase in cell viability incubated for 24 hrs by SRB assay; assay type: functional, cell-based; details: Homo sapiens
[3] = Kinetic solubility of compound; assay type: physicochemical; details: read-out: Kinetic_solubility
[4] = Metabolic stability in human liver microsomes assessed as half-life; assay type: ADME, Microsome
[5] = Metabolic stability in mouse liver microsomes assessed as half-life; assay type: ADME, Microsome
[6] = Stability in mouse plasma assessed as parent compound remaining measured after 6 hrs; assay type: ADME, cell-free; details: read-out: Stability
HUVEC [7] = experiment: Anti-ferroptosis activity against erastin-induced ferroptosis in HUVEC cells assessed as decrease in free ferrous ion level at 10 uM incubated for 24 hrs by Ferro orange fluorescent probe based assay; assay type: functional, cell-based; details: Homo sapiens
HUVEC [8] = experiment: Anti-ferroptosis activity against erastin-induced ferroptosis in HUVEC cells assessed as decrease in intracellular lipid ROS level at 10 uM incubated for 24 hrs by BODIPY 581/591 dye based assay; assay type: functional, cell-based; details: Homo sapiens
HUVEC [9] = experiment: Anti-ferroptosis activity against erastin-induced ferroptosis in HUVEC cells assessed as reduction in accumulation of lipid peroxidation at 10 uM incubated for 24 hrs by LPO assay; assay type: functional, cell-based; details: Homo sapiens
HUVEC [10] = experiment: Anti-ferroptosis activity against erastin-induced ferroptosis in HUVEC cells assessed as reduction in malondialdehyde content at 10 uM incubated for 24 hrs by lipid peroxidation MDA assay; assay type: functional, cell-based; details: Homo sapiens
HUVEC [11] = experiment: Anti-ferroptosis activity against erastin-induced ferroptosis in HUVEC cells assessed as upregulation of intracellular GSH level at 10 uM incubated for 24 hrs; assay type: functional, cell-based; details: Homo sapiens
HUVEC [12] = experiment: Anti-ferroptosis activity against erastin-induced ferroptosis in HUVEC cells assessed as upregulation of intracellular GPX4 level at 10 uM incubated for 24 hrs by Western blot analysis; assay type: functional, cell-based; details: Homo sapiens

Row | SMILES | Activity (HUVEC [1]) | EC50 (HUVEC [2]) | further results
1 | CCNC(=O)c1ccc(NC2CCCCC2)c(NC(=O)Cc2cccc(OC)c2)c1 | Active |  | 
2 | CCNC(=O)c1ccc(NC2CCCCC2)c(NC(=O)Cc2ccc(OC)c(Br)c2)c1 | inactive |  | 
3 | CCNC(=O)c1ccc(NC2CCCCC2)c(NC(=O)CCc2ccc(OC)cc2)c1 | Active |  | 
4 | CCNC(=O)c1ccc(NC2CCCCC2)c(NC(=O)Cc2cc(Br)cc(Br)c2)c1 | Active |  | 
5 | CCNC(=O)c1ccc(NC2CCCCC2)c(NCc2ccccc2)c1 | Active; Compound Exhibited Comparable Activity To Ferrostatin-1 | 6200 nM | solubility kinetic [3]: 50 µM (≈ 17.6 µg/mL); half-life [4]: 38.9 min; half-life [5]: 19.6 min; remaining at 6 h [6]: 0%
6 | CCNC(=O)c1ccc(NC2CCCCC2)c(NC(=O)Cc2ccc(OC)cc2)c1 | Active; Compound Exhibited Comparable Activity To Ferrostatin-1 | 980 nM | 
7 | CCNC(=O)c1ccc(NC2CCCCC2)c(NC(=O)/C=C/c2cccc(Br)c2)c1 | Active |  | 
8 | CCNC(=O)c1ccc(NC2CCCCC2)c(NC(=O)/C=C/c2cc(OC)c(OC)cc2OC)c1 | Active; Compound Exhibited Comparable Activity To Ferrostatin-1; Most Significant Efficacy Observed | 580 nM | Activity (HUVEC [7]): Active; Higher Effectiveness Compared To Ferrostatin-1; Activity (HUVEC [8]): Active; Activity (HUVEC [9]): Active; Activity (HUVEC [10]): Active; Activity (HUVEC [11]): Active; Activity (HUVEC [12]): Active; solubility kinetic [3]: 33.3 µM (≈ 16 µg/mL); half-life [4]: 62.7 min; half-life [5]: 31.4 min; remaining at 6 h [6]: 48%
9 | CCNC(=O)c1ccc(NC2CCCCC2)c(NC(=O)Cc2cc(OC)c(OC)c(OC)c2)c1 | inactive |  | 
10 | CCNC(=O)c1ccc(NC2CCCCC2)c(NC(=O)Cc2cc(F)c(F)cc2Br)c1 | Active; Compound Exhibited Comparable Activity To Ferrostatin-1 | 810 nM | 
11 | CCNC(=O)c1ccc(NC2CCCCC2)c(NC(=O)/C=C/c2ccccc2OC)c1 | Active; Compound Exhibited Comparable Activity To Ferrostatin-1 | 1100 nM | 
12 | CCNC(=O)c1ccc(NC2CCCCC2)c(NC(=O)/C=C/c2cccc(OC)c2OC)c1 | Active |  | 
13 | CCNC(=O)c1ccc(NC2CCCCC2)c(NC(=O)Cc2cc(Br)ccc2Br)c1 | inactive |  | 
14 | CCNC(=O)c1ccc(NC2CCCCC2)c(NC(=O)/C=C/c2ccccc2)c1 | Active; Compound Exhibited Comparable Activity To Ferrostatin-1 | 900 nM | 
15 | CCNC(=O)c1ccc(NC2CCCCC2)c(NC(=O)/C=C/c2ccc(O)c(OC)c2)c1 | Active |  | 
16 | CCNC(=O)c1ccc(NC2CCCCC2)c(NC(=O)Cc2cccc(Br)c2)c1 | inactive |  | 
17 | CCNC(=O)c1ccc(NC2CCCCC2)c(NC(=O)Cc2ccc(F)c(Br)c2)c1 | Active |  | 
18 | CCOC(=O)c1ccc(NC2CCCCC2)c(N)c1 | Active |  | Activity (HUVEC [7]): Active; Activity (HUVEC [8]): Active; Activity (HUVEC [9]): Active; Activity (HUVEC [10]): Active; Activity (HUVEC [11]): Active; Activity (HUVEC [12]): Active; solubility kinetic [3]: > 200 µM; half-life [4]: 16.8 min; half-life [5]: 2.7 min; remaining at 6 h [6]: 18%
19 | CCNC(=O)c1ccc(NC2CCCCC2)c(NC(=O)Cc2ccc(C)cc2)c1 | inactive |  | 
20 | CCNC(=O)c1ccc(NC2CCCCC2)c(NC(=O)Cc2cc(Br)ccc2F)c1 | Active |  | 
21 | CCNC(=O)c1ccc(NC2CCCCC2)c(NC(=O)C(c2ccccc2)c2ccccc2)c1 | Active; Compound Exhibited Comparable Activity To Ferrostatin-1 | 1000 nM | 
22 | CCNC(=O)c1ccc(NC2CCCCC2)c(NC(=O)Cc2ccc(OC)c(OC)c2)c1 | Active |  | 
23 | CCNC(=O)c1ccc(NC2CCCCC2)c(NC(=O)Cc2ccc(F)cc2)c1 | Active |  | 

From ChEMBL document CHEMBL6083230, “Synthesis and biological evaluation of ferrostatin-based diamide derivatives as new ferroptosis inhibitors” (Bioorg Med Chem Lett, 2024)
